In brackets after ≈: the same amount, converted by molar mass.
What was measured:
[1] = test system: Staphylococcus aureus; assay: Antibacterial activity against methicillin-resistant Staphylococcus aureus 215073 clinical isolate after 20 to 24 hrs by two-fold microdilution method; type: functional
[2] = Solubility of the compound in water at 25 degC measured after shaking for 4 hrs by UV method; type: physicochemical; details: buffer, 4 h
[3] = test system: Staphylococcus aureus; assay: Antibacterial activity against methicillin-resistant Staphylococcus aureus 20534 clinical isolate after 20 to 24 hrs by two-fold microdilution method; type: functional
[4] = test system: Staphylococcus aureus; assay: Antibacterial activity against methicillin-resistant Staphylococcus aureus 1025022 clinical isolate after 20 to 24 hrs by two-fold microdilution method; type: functional
[5] = test system: Staphylococcus aureus; assay: Antibacterial activity against methicillin-resistant Staphylococcus aureus 316038 clinical isolate after 20 to 24 hrs by two-fold microdilution method; type: functional
[6] = test system: Staphylococcus aureus; assay: Antibacterial activity against methicillin-resistant Staphylococcus aureus 109244 clinical isolate after 20 to 24 hrs by two-fold microdilution method; type: functional
[7] = test system: Staphylococcus aureus; assay: Antibacterial activity against methicillin-resistant Staphylococcus aureus 414244 clinical isolate after 20 to 24 hrs by two-fold microdilution method; type: functional
[8] = test system: Staphylococcus aureus; assay: Antibacterial activity against methicillin-resistant Staphylococcus aureus 224001 clinical isolate after 20 to 24 hrs by two-fold microdilution method; type: functional
[9] = test system: Staphylococcus aureus; assay: Antibacterial activity against methicillin-resistant Staphylococcus aureus 123152 clinical isolate after 20 to 24 hrs by two-fold microdilution method; type: functional
[10] = test system: Staphylococcus aureus; assay: Antibacterial activity against methicillin-resistant Staphylococcus aureus 304243 clinical isolate after 20 to 24 hrs by two-fold microdilution method; type: functional
[11] = test system: Staphylococcus aureus; assay: Antibacterial activity against methicillin-resistant Staphylococcus aureus 1106003 clinical isolate after 20 to 24 hrs by two-fold microdilution method; type: functional
[12] = test system: Staphylococcus aureus; assay: Antibacterial activity against methicillin-resistant Staphylococcus aureus 518036 clinical isolate after 20 to 24 hrs by two-fold microdilution method; type: functional
[13] = test system: Staphylococcus aureus; assay: Antibacterial activity against methicillin-resistant Staphylococcus aureus GLH14 clinical isolate after 20 to 24 hrs by two-fold microdilution method; type: functional
[14] = test system: Staphylococcus aureus; assay: Antibacterial activity against methicillin-resistant Staphylococcus aureus clinical isolate after 20 to 24 hrs by two-fold microdilution method; type: functional
[15] = test system: Staphylococcus aureus; assay: Antibacterial activity against methicillin-resistant Staphylococcus aureus 912014 clinical isolate after 20 to 24 hrs by two-fold microdilution method; type: functional
[16] = test system: Staphylococcus aureus; assay: Antibacterial activity against methicillin-resistant Staphylococcus aureus 120827 clinical isolate after 20 to 24 hrs by two-fold microdilution method; type: functional
[17] = test system: Staphylococcus aureus; assay: Antibacterial activity against methicillin-resistant Staphylococcus aureus 212014 clinical isolate after 20 to 24 hrs by two-fold microdilution method; type: functional
[18] = test system: Staphylococcus aureus; assay: Antibacterial activity against methicillin-resistant Staphylococcus aureus 1207026 clinical isolate after 20 to 24 hrs by two-fold microdilution method; type: functional
[19] = test system: Staphylococcus aureus; assay: Antibacterial activity against methicillin-resistant Staphylococcus aureus 131215 clinical isolate after 20 to 24 hrs by two-fold microdilution method; type: functional
[20] = test system: Staphylococcus aureus; assay: Antibacterial activity against methicillin-resistant Staphylococcus aureus 1214023 clinical isolate after 20 to 24 hrs by two-fold microdilution method; type: functional
[21] = test system: Staphylococcus aureus; assay: Antibacterial activity against methicillin-resistant Staphylococcus aureus 1103006 clinical isolate after 20 to 24 hrs by two-fold microdilution method; type: functional
[22] = test system: Staphylococcus aureus; assay: Antibacterial activity against methicillin-resistant Staphylococcus aureus 112106 clinical isolate after 20 to 24 hrs by two-fold microdilution method; type: functional
[23] = test system: Streptococcus pyogenes; assay: Antibacterial activity against Streptococcus pyogenes ATCC 19615 after 20 to 24 hrs by two-fold microdilution method; type: functional
[24] = test system: Staphylococcus aureus; assay: Antibacterial activity against methicillin-resistant Staphylococcus aureus 202045 clinical isolate after 20 to 24 hrs by two-fold microdilution method; type: functional
[25] = test system: Staphylococcus aureus; assay: Antibacterial activity against methicillin-resistant Staphylococcus aureus 1012039 clinical isolate after 20 to 24 hrs by two-fold microdilution method; type: functional
[26] = test system: Enterococcus faecalis; assay: Antibacterial activity against Enterococcus faecalis ATCC 29212 after 20 to 24 hrs by two-fold microdilution method; type: functional
[27] = test system: Staphylococcus aureus; assay: Antibacterial activity against methicillin-resistant Staphylococcus aureus 1211026 clinical isolate after 20 to 24 hrs by two-fold microdilution method; type: functional
[28] = test system: Staphylococcus aureus; assay: Antibacterial activity against methicillin-resistant Staphylococcus aureus 221022 clinical isolate after 20 to 24 hrs by two-fold microdilution method; type: functional
[29] = test system: Staphylococcus aureus; assay: Antibacterial activity against methicillin-resistant Staphylococcus aureus 1212221 clinical isolate after 20 to 24 hrs by two-fold microdilution method; type: functional
[30] = test system: Escherichia coli; assay: Antibacterial activity against Escherichia coli ATCC 25922 after 20 to 24 hrs by two-fold microdilution method; type: functional
[31] = test system: Staphylococcus aureus; assay: Antibacterial activity against methicillin-resistant Staphylococcus aureus 519238 clinical isolate after 20 to 24 hrs by two-fold microdilution method; type: functional
[32] = test system: Staphylococcus aureus; assay: Antibacterial activity against methicillin-resistant Staphylococcus aureus 531220 clinical isolate after 20 to 24 hrs by two-fold microdilution method; type: functional
[33] = test system: Staphylococcus aureus; assay: Antibacterial activity against methicillin-resistant Staphylococcus aureus 111423 clinical isolate after 20 to 24 hrs by two-fold microdilution method; type: functional
[34] = test system: Staphylococcus aureus; assay: Antibacterial activity against methicillin-resistant Staphylococcus aureus 1216052 clinical isolate after 20 to 24 hrs by two-fold microdilution method; type: functional
[35] = test system: Staphylococcus aureus; assay: Antibacterial activity against methicillin-resistant Staphylococcus aureus 130031 clinical isolate after 20 to 24 hrs by two-fold microdilution method; type: functional
[36] = test system: Staphylococcus aureus; assay: Antibacterial activity against methicillin-resistant Staphylococcus aureus 502025 clinical isolate after 20 to 24 hrs by two-fold microdilution method; type: functional
[37] = test system: Staphylococcus aureus; assay: Antibacterial activity against methicillin-resistant Staphylococcus aureus 110328-1 clinical isolate after 20 to 24 hrs by two-fold microdilution method; type: functional
[38] = test system: Staphylococcus aureus; assay: Antibacterial activity against methicillin-resistant Staphylococcus aureus 1212057-1 clinical isolate after 20 to 24 hrs by two-fold microdilution method; type: functional
[39] = test system: Staphylococcus aureus; assay: Antibacterial activity against methicillin-resistant Staphylococcus aureus 316031 clinical isolate after 20 to 24 hrs by two-fold microdilution method; type: functional
[40] = test system: Staphylococcus aureus; assay: Antibacterial activity against methicillin-resistant Staphylococcus aureus 1024010 clinical isolate after 20 to 24 hrs by two-fold microdilution method; type: functional
[41] = test system: Staphylococcus aureus; assay: Antibacterial activity against methicillin-resistant Staphylococcus aureus 110414 clinical isolate after 20 to 24 hrs by two-fold microdilution method; type: functional
[42] = test system: Staphylococcus aureus; assay: Antibacterial activity against methicillin-resistant Staphylococcus aureus 908046 clinical isolate after 20 to 24 hrs by two-fold microdilution method; type: functional
[43] = test system: Staphylococcus aureus; assay: Antibacterial activity against methicillin-resistant Staphylococcus aureus 20339 clinical isolate after 20 to 24 hrs by two-fold microdilution method; type: functional
[44] = test system: Staphylococcus aureus; assay: Antibacterial activity against methicillin-resistant Staphylococcus aureus 219236 clinical isolate after 20 to 24 hrs by two-fold microdilution method; type: functional
[45] = test system: Staphylococcus aureus; assay: Antibacterial activity against methicillin-resistant Staphylococcus aureus 1215028 clinical isolate after 20 to 24 hrs by two-fold microdilution method; type: functional
[46] = test system: Staphylococcus aureus; assay: Antibacterial activity against methicillin-resistant Staphylococcus aureus 519030 clinical isolate after 20 to 24 hrs by two-fold microdilution method; type: functional
[47] = test system: Staphylococcus aureus; assay: Antibacterial activity against methicillin-resistant Staphylococcus aureus 111625 clinical isolate after 20 to 24 hrs by two-fold microdilution method; type: functional

Question: For `O=C1c2cccnc2C(=O)c2c1c(C(=O)OCCCCN1CCOCC1)c1ccc(Br)cn21`, which MIC [1] is on record?
Answer: Its MIC is 0.063 µg/mL (≈ 0.123 µM).

Question: What about the solubility [2] of the same compound?
Answer: Its solubility is “Insoluble”.

Question: And the MIC [3]?
Answer: Its MIC is 1 µg/mL (≈ 1.95 µM).

Question: What about the MIC [4] of the same compound?
Answer: Its MIC is 0.125 µg/mL (≈ 0.244 µM).

Question: What about the MIC [5] of the same compound?
Answer: The MIC was 0.25 µg/mL (≈ 0.488 µM).

Question: And the MIC [6]?
Answer: The MIC was 0.25 µg/mL (≈ 0.488 µM).

Question: And the MIC [7]?
Answer: Its MIC is 1 µg/mL (≈ 1.95 µM).

Question: What about the MIC [8] of the same compound?
Answer: The MIC was 1 µg/mL (≈ 1.95 µM).

Question: What about the MIC [9] of the same compound?
Answer: Its MIC is 0.25 µg/mL (≈ 0.488 µM).

Question: And the MIC [10]?
Answer: Its MIC is 0.125 µg/mL (≈ 0.244 µM).

Question: What about the MIC [11] of the same compound?
Answer: The MIC was 16 µg/mL (≈ 31.2 µM).

Question: What about the MIC [12] of the same compound?
Answer: Its MIC is 0.5 µg/mL (≈ 0.976 µM).

Question: And the MIC [13]?
Answer: Its MIC is 0.5 µg/mL (≈ 0.976 µM).

Question: And the MIC50 [14]?
Answer: Its MIC50 is 0.5 µg/mL (≈ 0.976 µM).

Question: And the MIC90 [14]?
Answer: Its MIC90 is 1 µg/mL (≈ 1.95 µM).

Question: What about the MIC [15] of the same compound?
Answer: Its MIC is 0.5 µg/mL (≈ 0.976 µM).

Question: What about the MIC [16] of the same compound?
Answer: The MIC was 0.25 µg/mL (≈ 0.488 µM).

Question: What about the MIC [17] of the same compound?
Answer: The MIC was 0.125 µg/mL (≈ 0.244 µM).

Question: And the MIC [18]?
Answer: Its MIC is 0.5 µg/mL (≈ 0.976 µM).

Question: What about the MIC [19] of the same compound?
Answer: The MIC was 0.125 µg/mL (≈ 0.244 µM).

Question: What about the MIC [20] of the same compound?
Answer: The MIC was 0.031 µg/mL (≈ 0.0605 µM).

Question: And the MIC [21]?
Answer: The MIC was > 16 µg/mL.

Question: And the MIC [22]?
Answer: Its MIC is 0.5 µg/mL (≈ 0.976 µM).

Question: What about the MIC [23] of the same compound?
Answer: The MIC was 4 µg/mL (≈ 7.81 µM).

Question: What about the MIC [24] of the same compound?
Answer: The MIC was 0.25 µg/mL (≈ 0.488 µM).

Question: And the MIC [25]?
Answer: The MIC was 0.5 µg/mL (≈ 0.976 µM).

Question: And the MIC [26]?
Answer: Its MIC is 0.25 µg/mL (≈ 0.488 µM).

Question: What about the MIC [27] of the same compound?
Answer: The MIC was 0.125 µg/mL (≈ 0.244 µM).

Question: What about the MIC [28] of the same compound?
Answer: The MIC was 0.5 µg/mL (≈ 0.976 µM).

Question: What about the MIC [29] of the same compound?
Answer: The MIC was 0.125 µg/mL (≈ 0.244 µM).

Question: And the MIC [30]?
Answer: The MIC was > 16 µg/mL.

Question: What about the MIC [31] of the same compound?
Answer: Its MIC is 0.5 µg/mL (≈ 0.976 µM).

Question: And the MIC [32]?
Answer: Its MIC is 0.25 µg/mL (≈ 0.488 µM).

Question: What about the MIC [33] of the same compound?
Answer: Its MIC is 8 µg/mL (≈ 15.6 µM).

Question: And the MIC [34]?
Answer: The MIC was 8 µg/mL (≈ 15.6 µM).

Question: And the MIC [35]?
Answer: The MIC was 1 µg/mL (≈ 1.95 µM).

Question: What about the MIC [36] of the same compound?
Answer: Its MIC is 0.5 µg/mL (≈ 0.976 µM).

Question: And the MIC [37]?
Answer: Its MIC is ≤ 7.8 ng/mL.

Question: And the MIC [38]?
Answer: The MIC was 0.25 µg/mL (≈ 0.488 µM).

Question: And the MIC [39]?
Answer: The MIC was 0.5 µg/mL (≈ 0.976 µM).

Question: What about the MIC [40] of the same compound?
Answer: Its MIC is 0.5 µg/mL (≈ 0.976 µM).

Question: And the MIC [41]?
Answer: The MIC was 0.5 µg/mL (≈ 0.976 µM).

Question: What about the MIC [42] of the same compound?
Answer: Its MIC is 0.125 µg/mL (≈ 0.244 µM).

Question: What about the MIC [43] of the same compound?
Answer: Its MIC is 0.5 µg/mL (≈ 0.976 µM).

Question: And the MIC [44]?
Answer: Its MIC is 0.063 µg/mL (≈ 0.123 µM).

Question: And the MIC [45]?
Answer: Its MIC is 0.5 µg/mL (≈ 0.976 µM).

Question: And the MIC [46]?
Answer: Its MIC is 1 µg/mL (≈ 1.95 µM).

Question: What about the MIC [47] of the same compound?
Answer: Its MIC is 0.5 µg/mL (≈ 0.976 µM).
